Test results as given in patent publication US20110275559A1, “Long-Acting Y2 and/or Y4 Receptor Agonists” (Novo Nordisk A/S, priority 2008, published 2011).
*1 amine or outer side, *2 acyl side, *3 side chain or, on linkers, in order; H or OH if unused. Where a SMILES comes first, the peptide text is derived from it. Side-chain parts run from the residue outwards. The star is where a group is joined. C20 diacid = O=C(O)CCCCCCCCCCCCCCCCCCC(=O)*; C18 diacid = O=C(O)CCCCCCCCCCCCCCCCC(=O)*; γGlu = O=C(O)[C@H](CCC(=O)[*:2])N[*:1]; Trx = NC[C@H]1CC[C@H](C(=O)O)CC1; AEEA = NCCOCCOCC(=O)O

Assay: in vivo
Conditions: Göttingen, minipig, iv
Description: (§1) The mini-pigs had two central venous catheters inserted which were used for intra venous (i.v.) dosing and bloodsampling. Compound was dissolved in 50 mM K2HPO4, 0.05% tween 80, pH=8.0 to a concentration of 180 nmol/ml. The pigs were dosed with 6 nmol compound/kg body weight. […] The blood samples were collected into test tubes containing EDTA buffer for stabilization and kept on ice for max. 20 minutes before centrifugation. The centrifugation procedure to separate plasma was; 4° C., 3000 rpm for 10 minutes. Plasma were collected and immediately transferred to Micronic tubes stored at −20° C. until assayed.
An additional mini-pig PK assay was used for measuring PK of the compounds of the invention. […] The animals had two central venous catheters inserted which were used for intra venous (i.v.) dosing and blood sampling. Compounds were dissolved in 10 mM Na2HPO4, 150 mM NaCl, 0.01% tween 80, pH=4.0 to concentrations in the range of 40 nmol/ml to 200 nmol/ml. The mini-pigs were dosed i.v. with 10 nmol compound/kg body weight, occasionally other doses such as 4 nmol/kg, 30 nmol/kg or 50 nmol/kg were administered. Each compound was dosed to 3 or 4 mini-pigs, and two compounds may be given simultaneously to the same animal. Blood were sampled pre-dose and 12 times during the first 10 hours post-dose. Blood were furthermore sampled once daily until 13 days post dosing. The blood samples were collected into test tubes containing EDTA buffer, trasylol and Val-Pyr for stabilization and kept on ice for max. 20 minutes. Samples were centrifuged at 4° C., 2000G for 10 minutes to separate plasma. Plasma were collected and immediately transferred to Micronic tubes stored at −20° C. until assayed.
Plasma samples were analysed by LC-MS on an LTQ-Orbitrap (ThermoFisher Scientific, Bremen) to which Accela HPLC pumps and an autosampler were connected (both from ThermoFisher). […] HPLC was performed on a Jupiter Proteo column (4μ) 90A (50×2.0 mm ID). […] The flow rate was 0.3 ml/min. For analysis of plasma samples, 30 μl plasma was precipitated with 90 μl ethanol. […] The heptane phase was removed after 5 min and the remaining solution was analysed by LC-MS as described above. For construction of plasma standards, compound was spiked to plasma (minipig) at the following concentrations: 1 nM, 2 nM, 5 nM, 10 nM, 20 nM, 50 nM, 100 nM, 200 nM. The plasma standards were treated as the samples. The lower limit of quantification was estimated to 2 nM.
Non-compartmental analysis (NCA): Plasma concentration-time profiles were analyzed by non-compartmental pharmacokinetics analysis (NCA) using WinNonlin Professional 5.0 (Pharsight Inc., Mountain View, Calif., USA). NCA was performed using the individual plasma concentration-time profiles from each animal.
For determination of plasma concentration of the PYY and PP peptide derivative or analogues thereof the following Methods 1-4 were used.
as §1, with “bloodsampling. The compound” for “bloodsampling. Compound”, “to an appropriate” for “to a”, “concentration (e.g. 25-500 nmol/mL).” for “concentration of 180 nmol/ml.”, “dosed intravenously (i.v.) or subcutaneously (s.c.)” for “dosed”, “with between 1 and 30” for “with 6”, “buffer (with Aprotinin 15000 KIE/mL and Val-Pyr 0.30 mM)” for “buffer”
An additional mini-pig PK assay was used for measuring PK of the compounds of the invention. […] The animals had two central venous catheters inserted which were used for intra venous (i.v.) dosing and blood sampling.

half-life (10 nmol/kg)	SMILES	other results
	CC[C@H](C)[C@H](NC(=O)[C@H](Cc1ccc(O)cc1)NC(=O)[C@H](CCCNC(=N)N)NC(=O)[C@H](CCCNC(=N)N)NC(=O)[C@H](CC(C)C)NC(=O)[C@H](CC(=O)O)NC(=O)[C@H](C)NC(=O)[C@H](C)NC(=O)[C@H](Cc1ccc(O)cc1)NC(=O)[C@H](CCC(N)=O)NC(=O)[C@H](C)NC(=O)[C@H](CCSC)NC(=O)[C@H](CCC(N)=O)NC(=O)[C@H](CCC(=O)O)NC(=O)[C@@H]1CCCN1C(=O)[C@H](CCCCNC(=O)COCCOCCNC(=O)COCCOCCNC(=O)CC[C@H](NC(=O)CCCCCCCCCCCCCCCCC(=O)O)C(=O)O)NC(=O)[C@H](C)NC(=O)[C@H](CC(N)=O)NC(=O)[C@H](CC(=O)O)NC(=O)CNC(=O)[C@@H]1CCCN1C(=O)[C@H](Cc1ccc(O)cc1)NC(=O)[C@@H](NC(=O)[C@@H]1CCCN1C(=O)[C@H](CCC(=O)O)NC(=O)[C@H](CC(C)C)NC(=O)[C@@H]1CCCN1C(=O)[C@H](C)N)C(C)C)C(=O)N[C@@H](CC(N)=O)C(=O)N[C@@H](CCSC)C(=O)N[C@@H](CC(C)C)C(=O)N[C@H](C(=O)N[C@@H](CCCNC(=N)N)C(=O)N1CCC[C@H]1C(=O)N[C@@H](CCCNC(=N)N)C(=O)N[C@@H](Cc1ccc(O)cc1)C(N)=O)[C@@H](C)O [SEQ ID NO: 24, N-epsilon13-[2-(2-{2-[2-(2-{2-[(S)-4-Carboxy-4-(17-carboxyheptadecanoylamino)butyrylamino]ethoxy}ethoxy)acetylamino]-ethoxy}ethoxy)acetyl][Lys13]hPP(1-36)] (H-APLEPVYPGDNAK([AEEA-AEEA-γGlu-C18 diacid])PEQMAQYAADLRRYINMLTRPRY-NH2; N-terminus and C-terminus assumed)	half-life (20 nmol/kg): 3.5 h
88 h	CC[C@H](C)[C@H](NC(=O)[C@H](Cc1ccc(O)cc1)NC(=O)[C@H](CCCNC(=N)N)NC(=O)[C@H](CCCCNC(=O)COCCOCCNC(=O)COCCOCCNC(=O)CC[C@H](NC(=O)CCCCCCCCCCCCCCCCC(=O)O)C(=O)O)NC(=O)[C@H](CC(C)C)NC(=O)[C@H](CC(=O)O)NC(=O)[C@H](C)NC(=O)[C@H](C)NC(=O)[C@H](Cc1ccc(O)cc1)NC(=O)[C@H](CCC(N)=O)NC(=O)[C@H](C)NC(=O)[C@H](CC(C)C)NC(=O)[C@H](CCC(N)=O)NC(=O)[C@H](CCC(=O)O)NC(=O)[C@@H]1CCCN1C(=O)[C@@H](NC(=O)[C@H](C)NC(=O)[C@H](CC(N)=O)NC(=O)[C@H](CC(=O)O)NC(=O)CNC(=O)[C@@H]1CCCN1C(=O)[C@H](Cc1ccc(O)cc1)NC(=O)[C@@H](NC(=O)[C@@H]1CCCN1C(=O)[C@H](CCC(=O)O)NC(=O)[C@H](CC(C)C)NC(=O)[C@@H]1CCCN1)C(C)C)[C@@H](C)O)C(=O)N[C@@H](CC(N)=O)C(=O)N[C@@H](CC(C)C)C(=O)N[C@@H](CC(C)C)C(=O)N[C@H](C(=O)N[C@@H](CCCNC(=N)N)C(=O)N1CCC[C@H]1C(=O)N[C@@H](CCCNC(=N)N)C(=O)N[C@@H](Cc1ccc(O)cc1)C(N)=O)[C@@H](C)O [SEQ ID NO: 49, N-epsilon25-[2-(2-{2-[2-(2-{2-[(S)-4-Carboxy-4-(17-carboxyheptadecanoylamino)butyrylamino]ethoxy}ethoxy)acetylamino]-ethoxy}ethoxy)acetyl][Leu17,Lys25,Leu30]hPP2-36] (H-PLEPVYPGDNATPEQLAQYAADLK([AEEA-AEEA-γGlu-C18 diacid])RYINLLTRPRY-NH2)	
78 h	CC[C@H](C)[C@H](NC(=O)[C@H](Cc1ccc(O)cc1)NC(=O)[C@H](CCCNC(=N)N)NC(=O)[C@H](CCCNC(=N)N)NC(=O)[C@H](CC(C)C)NC(=O)[C@H](CC(=O)O)NC(=O)[C@H](C)NC(=O)[C@H](C)NC(=O)[C@H](Cc1ccc(O)cc1)NC(=O)[C@H](CCC(N)=O)NC(=O)[C@H](C)NC(=O)[C@H](CC(C)C)NC(=O)[C@H](CCC(N)=O)NC(=O)[C@H](CCC(=O)O)NC(=O)[C@@H]1CCCN1C(=O)[C@@H](NC(=O)[C@H](C)NC(=O)[C@H](CC(N)=O)NC(=O)[C@H](CC(=O)O)NC(=O)CNC(=O)[C@@H]1CCCN1C(=O)[C@H](Cc1ccc(O)cc1)NC(=O)[C@@H](NC(=O)[C@@H]1CCCN1C(=O)[C@H](CCC(=O)O)NC(=O)[C@H](CC(C)C)NC(=O)[C@@H]1CCCN1)C(C)C)[C@@H](C)O)C(=O)N[C@@H](CC(N)=O)C(=O)N[C@@H](CC(C)C)C(=O)N[C@@H](CC(C)C)C(=O)N[C@H](C(=O)N[C@@H](CCCNC(=N)N)C(=O)N1CCC[C@H]1C(=O)N[C@@H](CCCCNC(=O)COCCOCCNC(=O)COCCOCCNC(=O)CC[C@H](NC(=O)CCCCCCCCCCCCCCCCC(=O)O)C(=O)O)C(=O)N[C@@H](Cc1ccc(O)cc1)C(N)=O)[C@@H](C)O [SEQ ID NO: 47, N-epsilon35-[2-(2-{2-[2-(2-{2-[(S)-4-Carboxy-4-(17-carboxyheptadecanoylamino)butyrylamino]ethoxy}ethoxy)acetylamino]-ethoxy}ethoxy)acetyl][Leu17,Leu30,Lys35]hPP2-36] (H-PLEPVYPGDNATPEQLAQYAADLRRYINLLTRPK([AEEA-AEEA-γGlu-C18 diacid])Y-NH2)	
	CC[C@H](C)[C@H](NC(=O)[C@H](Cc1ccc(O)cc1)NC(=O)[C@H](CCCNC(=N)N)NC(=O)[C@H](CCCNC(=N)N)NC(=O)[C@H](CC(C)C)NC(=O)[C@H](CC(=O)O)NC(=O)[C@H](C)NC(=O)[C@H](C)NC(=O)[C@H](Cc1ccc(O)cc1)NC(=O)[C@H](CCC(N)=O)NC(=O)[C@H](C)NC(=O)[C@H](CC(C)C)NC(=O)[C@H](CCC(N)=O)NC(=O)[C@H](CCCCNC(=O)COCCOCCNC(=O)COCCOCCNC(=O)CC[C@H](NC(=O)[C@H]1CC[C@H](CNC(=O)CCCCCCCCCCCCCCCCCCC(=O)O)CC1)C(=O)O)NC(=O)[C@@H]1CCCN1C(=O)[C@@H](NC(=O)[C@H](C)NC(=O)[C@H](CC(N)=O)NC(=O)[C@H](CC(=O)O)NC(=O)CNC(=O)[C@@H]1CCCN1C(=O)[C@H](Cc1ccc(O)cc1)NC(=O)[C@@H](NC(=O)[C@@H]1CCCN1C(=O)[C@H](CCC(=O)O)NC(=O)[C@H](CC(C)C)NC(=O)[C@@H]1CCCN1C(=O)[C@H](C)N)C(C)C)[C@@H](C)O)C(=O)N[C@@H](CC(N)=O)C(=O)N[C@@H](CC(C)C)C(=O)N[C@@H](CC(C)C)C(=O)N[C@H](C(=O)N[C@@H](CCCNC(=N)N)C(=O)N1CCC[C@H]1C(=O)N[C@@H](CCCNC(=N)N)C(=O)N[C@@H](Cc1ccc(O)cc1)C(N)=O)[C@@H](C)O [SEQ ID NO: 72, N-epsilon15-[2-(2-{2-[2-(2-{2-[(S)-4-Carboxy-4-({trans-4-[(19-carboxynonadecanoylamino)methyl]cyclohexanecarbonyl}amino)butyrylamino]-ethoxy}ethoxy)acetylamino]ethoxy}ethoxy)acetyl][Leu17,Lys15,Leu30]hPP1-36] (H-APLEPVYPGDNATPK([AEEA-AEEA-γGlu-Trx-C20 diacid])QLAQYAADLRRYINLLTRPRY-NH2)	half-life (in vivo, 8 nmol/kg): 14 h
